Where “and” joins values, the source holds several entries; their conditions need not be identical. Identical values can stand only once. Counter-ions that a name gives are not always drawn.
Tests used:
[1] = target: T1, human NMDA receptor GluN1-GluN2A (Homo sapiens, UniProt Q05586+Q12879); assay: FLIPR calcium assay, test item effect on L-glutamate CRC, GluN1-GluN2A-CHO; assay type: cell-based
T1 construct: expressed in transfected cells; host or cells: CHO
Method: (§1) FLIPR determination of intracellular calcium level was used as a read-out for NMDAR activation.
(§2) 400× compound plate was stored at −20° C. until FLIPR experimental day.
(§3) 4× compound plate was generated from 400× compound plate by addition of up to 30 μl/well of compound buffer on FLIPR experimental day.
(§4) A FLIPR system was used to monitor intracellular calcium level in NMDAR cell lines, pre-loaded for 1 hour with Fluo-4, and then washed with assay buffer.
(§5) Y=Bottom+(Top−Bottom)/(1+10^((LogEC50−Log[A])*HillSlope))

[2] = target: T2, human NMDA receptor GluN1-GluN2B (Homo sapiens, UniProt Q05586+Q13224); assay: cell-based; assay type: cell-based
T2 construct: expressed in transfected cells; host or cells: CHO
Method: as §1, §2, §3, §4, §5

[3] = target: T3, human NMDA receptor GluN1-GluN2C (Homo sapiens, UniProt Q05586+Q14957); assay: FLIPR calcium assay, test item effect on L-glutamate CRC, GluN1-GluN2C-CHO; assay type: cell-based
T3 construct: expressed in transfected cells; host or cells: CHO
T3 sequence (Q14957 20-1233, other chains not shown): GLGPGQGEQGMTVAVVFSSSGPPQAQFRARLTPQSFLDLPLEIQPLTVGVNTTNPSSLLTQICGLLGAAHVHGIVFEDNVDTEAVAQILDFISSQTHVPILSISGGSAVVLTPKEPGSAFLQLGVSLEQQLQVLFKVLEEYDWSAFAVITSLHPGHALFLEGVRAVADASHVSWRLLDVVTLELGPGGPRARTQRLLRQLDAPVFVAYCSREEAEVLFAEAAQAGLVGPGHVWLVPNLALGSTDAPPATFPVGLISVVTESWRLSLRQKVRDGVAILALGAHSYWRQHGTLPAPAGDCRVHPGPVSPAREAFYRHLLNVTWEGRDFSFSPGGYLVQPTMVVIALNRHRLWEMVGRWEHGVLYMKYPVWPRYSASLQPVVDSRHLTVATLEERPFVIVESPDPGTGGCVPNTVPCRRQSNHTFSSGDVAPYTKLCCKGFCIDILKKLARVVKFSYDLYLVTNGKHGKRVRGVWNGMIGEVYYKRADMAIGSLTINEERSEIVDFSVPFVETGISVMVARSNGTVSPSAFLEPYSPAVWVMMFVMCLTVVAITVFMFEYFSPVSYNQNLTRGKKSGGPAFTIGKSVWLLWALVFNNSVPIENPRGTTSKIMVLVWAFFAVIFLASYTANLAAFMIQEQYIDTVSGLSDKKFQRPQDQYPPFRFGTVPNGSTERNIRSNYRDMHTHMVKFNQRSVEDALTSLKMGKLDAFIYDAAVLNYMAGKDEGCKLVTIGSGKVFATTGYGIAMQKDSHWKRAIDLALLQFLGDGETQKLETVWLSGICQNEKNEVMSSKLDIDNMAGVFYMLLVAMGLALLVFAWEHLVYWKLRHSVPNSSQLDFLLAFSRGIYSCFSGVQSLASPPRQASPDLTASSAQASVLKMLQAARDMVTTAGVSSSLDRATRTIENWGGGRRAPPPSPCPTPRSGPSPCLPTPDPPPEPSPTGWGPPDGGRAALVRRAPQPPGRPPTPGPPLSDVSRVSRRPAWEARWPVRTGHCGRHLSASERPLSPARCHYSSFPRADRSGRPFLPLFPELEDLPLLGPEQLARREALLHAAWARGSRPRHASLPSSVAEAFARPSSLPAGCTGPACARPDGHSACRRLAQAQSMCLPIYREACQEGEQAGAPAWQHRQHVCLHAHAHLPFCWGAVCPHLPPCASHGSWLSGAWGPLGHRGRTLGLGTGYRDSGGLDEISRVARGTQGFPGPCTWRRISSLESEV
Method: as §1, §2, §3, §4, §5

[4] = target: T4, human NMDA receptor GluN1-GluN2D (Homo sapiens, UniProt O15399+Q05586); assay: FLIPR calcium assay, test item effect on L-glutamate CRC, GluN1-GluN2D-CHO; assay type: cell-based
T4 construct: expressed in transfected cells; host or cells: CHO
T4 sequence (O15399 28-1336, other chains not shown): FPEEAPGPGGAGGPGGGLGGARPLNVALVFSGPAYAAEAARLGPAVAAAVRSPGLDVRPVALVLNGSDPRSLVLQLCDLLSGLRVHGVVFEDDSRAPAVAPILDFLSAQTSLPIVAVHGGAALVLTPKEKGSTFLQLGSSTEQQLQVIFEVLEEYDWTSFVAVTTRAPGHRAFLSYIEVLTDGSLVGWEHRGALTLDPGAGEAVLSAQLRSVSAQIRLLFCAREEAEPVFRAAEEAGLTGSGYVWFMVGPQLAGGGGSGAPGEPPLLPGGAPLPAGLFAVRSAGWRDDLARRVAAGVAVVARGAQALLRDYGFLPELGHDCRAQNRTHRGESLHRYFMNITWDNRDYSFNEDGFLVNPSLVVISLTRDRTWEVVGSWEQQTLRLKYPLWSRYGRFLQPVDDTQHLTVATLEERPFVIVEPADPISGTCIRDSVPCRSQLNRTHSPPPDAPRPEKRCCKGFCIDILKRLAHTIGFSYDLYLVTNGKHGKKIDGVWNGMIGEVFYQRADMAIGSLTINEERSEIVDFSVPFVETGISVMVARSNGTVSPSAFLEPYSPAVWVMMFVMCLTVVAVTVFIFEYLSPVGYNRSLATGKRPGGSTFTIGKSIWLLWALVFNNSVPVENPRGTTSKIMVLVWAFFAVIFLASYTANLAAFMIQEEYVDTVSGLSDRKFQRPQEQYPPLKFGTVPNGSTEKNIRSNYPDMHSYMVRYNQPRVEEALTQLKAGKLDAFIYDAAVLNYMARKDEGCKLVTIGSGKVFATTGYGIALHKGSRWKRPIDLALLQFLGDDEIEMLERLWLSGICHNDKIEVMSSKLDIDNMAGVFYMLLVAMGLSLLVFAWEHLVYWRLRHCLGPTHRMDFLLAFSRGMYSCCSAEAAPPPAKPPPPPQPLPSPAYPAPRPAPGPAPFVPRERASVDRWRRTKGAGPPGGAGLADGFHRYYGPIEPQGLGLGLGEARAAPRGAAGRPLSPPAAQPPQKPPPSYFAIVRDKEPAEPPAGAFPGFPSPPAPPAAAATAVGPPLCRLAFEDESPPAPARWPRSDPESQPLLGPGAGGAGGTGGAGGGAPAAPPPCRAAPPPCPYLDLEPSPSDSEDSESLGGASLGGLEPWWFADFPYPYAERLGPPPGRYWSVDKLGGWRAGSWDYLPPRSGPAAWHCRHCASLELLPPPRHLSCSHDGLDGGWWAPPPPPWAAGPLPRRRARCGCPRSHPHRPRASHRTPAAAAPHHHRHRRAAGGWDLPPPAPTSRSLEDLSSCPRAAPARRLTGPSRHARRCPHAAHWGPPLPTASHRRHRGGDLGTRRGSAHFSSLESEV
Method: as §1, §2, §3, §4, §5

[5] = test system: diheteromeric human recombinant NMDAR containing GluN1 plus GluN2A, GluN2B, GluN2C or GluN2D; assay: FLIPR calcium assay, statements for all four NMDAR subtypes together; assay type: cell-based; settings: 6 test item concentrations
Text: An operational equation for allosteric modulators (Leach K, Sexton P M and Christopoulos A, Allosteric GPCR modulators: taking advantage of permissive receptor pharmacology, Trends Pharmacol. Sci. 28: 382-389, 2007; Kenakin T P, Overview of receptor interaction of agonists and antagonists, Curr. Protoc. Pharmacol. Chapter 4: Unit 4.1, 2008, Kenakin T P, Biased signalling and allosteric machines: new vistas and challenges for drug discovery, Br. J. Pharmacol. 165: 1659-1669, 2012) was created in Prism 8 (GraphPad) software to estimate KB and a parameters for every test item, with the assumption that, as a pore blocker, every test item would be able to produce a compete blockade of agonist response, at sufficiently high concentration: […]

[6] = test system: NMDA receptors of cultured rat cortical neurons; settings: Mealing et al., 1999; cited from earlier work
[7] = target: T5, human GluN1-GluN2C NMDA receptor (Homo sapiens, UniProt Q05586+Q14957); assay: Manual patch clamp trapping assay, hGluN1/hGluN2C-CHO cells; settings: test item 1 μM, hydrochloride
T5 sequence (Q14957 20-1233, other chains not shown): as the sequence (Q14957 20-1233, other chains not shown) above
Text: Manual patch clamp recordings occurred at −70 mV.
hGluN1/hGluN2C-CHO cells grown on poly-D-lysine coated glass coverslips were studied by manual patch clamp whole cell recording.
(§6) Recordings occurred at −70 mV fixed voltage equal to holding potential.

[8] = target: T5, human GluN1-GluN2C NMDA receptor; assay: Manual patch clamp on-/off-rate assay, hGluN1/hGluN2C-CHO cells; settings: for % Current (mean ± SEM): 10/10 μM L-glutamate/glycine induced current, hGluN1/hGluN2C-CHO; for Tau-off: continuous 10/10 μM L-glutamate/glycine; for I2 (% current): current after 50 seconds removal of test item; for Tau-on: 10/10 μM L-glutamate/glycine; for % block of 10/10 μM L-glutamate/glycine induced current: −70 mV, no Mg2+
Method: Manual patch clamp recordings occurred at −70 mV. […] Tau-on and tau-off were estimated by curve fitting to first order exponential equations.
Test items were evaluated using a manual patch clamp whole-cell recording methodology, using HEKA Elektronik Patchmaster system, coupled to BioLogic RSC-160 perfusion device (BioLogic, Seyssinet-Pariset, France).
hGluN1/hGluN2C-CHO cells grown on poly-D-lysine coated glass coverslips were studied by manual patch clamp whole cell recording. Extracellular and intracellular solutions for patch clamp recording had following composition:
as §6
Test item on-/off-rates were measured by curve fitting the development of their induced current block, or relief from it.
At least n=10 independent cells were analysed. […] Time constant of onset (tau-on, seconds) and offset (tau-off, seconds) of test item inhibition of glutamate induced current were calculated using first order exponential equations as shown below:
I(t)=I1+(I2−I1)×(1−e^−t/τoff)

[9] = highest affinity for a NMDAR subtype = 100%
[10] = operational analysis for allosteric modulators
[11] = 10 μM test item, offset fitting

T1 sequence (Q12879 23-1464, other chains not shown): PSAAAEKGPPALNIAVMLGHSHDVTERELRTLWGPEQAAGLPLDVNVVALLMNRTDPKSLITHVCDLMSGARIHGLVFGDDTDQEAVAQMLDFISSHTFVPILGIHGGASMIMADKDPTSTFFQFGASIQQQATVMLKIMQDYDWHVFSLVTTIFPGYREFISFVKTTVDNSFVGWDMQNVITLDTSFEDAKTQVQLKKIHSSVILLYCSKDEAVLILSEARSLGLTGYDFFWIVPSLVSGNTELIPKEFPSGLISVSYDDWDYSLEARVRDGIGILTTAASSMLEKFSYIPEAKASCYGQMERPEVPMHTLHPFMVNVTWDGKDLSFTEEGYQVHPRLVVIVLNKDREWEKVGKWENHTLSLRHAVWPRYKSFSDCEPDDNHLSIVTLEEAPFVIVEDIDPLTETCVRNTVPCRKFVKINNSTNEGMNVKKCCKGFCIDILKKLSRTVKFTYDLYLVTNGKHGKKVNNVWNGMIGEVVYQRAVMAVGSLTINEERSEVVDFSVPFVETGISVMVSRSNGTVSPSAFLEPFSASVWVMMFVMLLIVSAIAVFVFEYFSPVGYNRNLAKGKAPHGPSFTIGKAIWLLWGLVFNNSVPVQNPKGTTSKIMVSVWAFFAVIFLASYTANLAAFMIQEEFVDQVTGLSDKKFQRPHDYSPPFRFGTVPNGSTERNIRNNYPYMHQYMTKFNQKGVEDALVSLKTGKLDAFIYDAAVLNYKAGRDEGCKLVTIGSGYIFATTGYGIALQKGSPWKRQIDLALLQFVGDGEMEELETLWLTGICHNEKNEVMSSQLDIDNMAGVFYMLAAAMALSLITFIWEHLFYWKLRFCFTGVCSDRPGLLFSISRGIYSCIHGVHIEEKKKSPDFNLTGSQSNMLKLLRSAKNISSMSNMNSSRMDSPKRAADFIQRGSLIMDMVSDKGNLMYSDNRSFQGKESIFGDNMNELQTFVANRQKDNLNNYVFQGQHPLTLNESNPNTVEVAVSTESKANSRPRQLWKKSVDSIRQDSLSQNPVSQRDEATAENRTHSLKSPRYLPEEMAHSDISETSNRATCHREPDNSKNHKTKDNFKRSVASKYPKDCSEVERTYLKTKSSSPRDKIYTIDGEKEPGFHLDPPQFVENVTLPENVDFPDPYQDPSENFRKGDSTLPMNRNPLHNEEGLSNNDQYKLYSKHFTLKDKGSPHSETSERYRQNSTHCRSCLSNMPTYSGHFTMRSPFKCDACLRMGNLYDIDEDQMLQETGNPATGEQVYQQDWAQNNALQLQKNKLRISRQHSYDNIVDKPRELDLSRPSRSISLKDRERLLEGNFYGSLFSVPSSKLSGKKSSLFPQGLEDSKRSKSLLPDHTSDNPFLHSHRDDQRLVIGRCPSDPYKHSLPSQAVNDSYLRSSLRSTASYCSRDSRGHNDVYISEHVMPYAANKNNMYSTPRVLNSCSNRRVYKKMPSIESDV

Structure (SMILES): CNC1(c2ccccc2Cl)CCCCC1=O (racemic) [(±)-Ketamine, (±)-ketamine hydrochloride]
- Kb [1]: 4.3 µM
- % affinity ratio [1, 9]: 11%
- α, estimated cooperativity term [1, 10]: 0.17
- L-glutamate CRC HillSlope ([1]; with test item 49 nM): 1.2
- L-glutamate CRC LogEC50 ([1]; with test item 49 nM): −6.5
- L-glutamate CRC HillSlope ([1]; with test item 195 nM): 1.2
- L-glutamate CRC LogEC50 ([1]; with test item 195 nM): −6.5
- L-glutamate CRC HillSlope ([1]; with test item 781 nM): 1.0
- L-glutamate CRC LogEC50 ([1]; with test item 781 nM): −6.4
- L-glutamate CRC HillSlope ([1]; with test item 3.1 μM): 1.1
- L-glutamate CRC LogEC50 ([1]; with test item 3.1 μM): −6.4
- L-glutamate CRC HillSlope ([1]; with test item 12.5 μM): 1.3
- L-glutamate CRC LogEC50 ([1]; with test item 12.5 μM): −6.4
- L-glutamate CRC HillSlope ([1]; with test item 50 μM): 1.9
- L-glutamate CRC LogEC50 ([1]; with test item 50 μM): −6.2
- % affinity ratio [2]: 42%
- Kb [2]: 1.1 µM
- α, estimated cooperativity term [2]: 0.14
- L-glutamate CRC HillSlope ([2]; hydrochloride): 2.0 and 1.4 and 1.1 and 1.2
- Kb [3]: 0.46 µM
- potency with respect to dextromethadone ([3]; from the FLIPR study (Example 1)): ~10 fold
- % affinity ratio [3, 9]: 100%
- α, estimated cooperativity term [3, 10]: 0.13
- L-glutamate CRC HillSlope ([3]; with test item 49 nM): 1.5
- L-glutamate CRC LogEC50 ([3]; with test item 49 nM): −6.9
- L-glutamate CRC HillSlope ([3]; with test item 195 nM): 1.5
- L-glutamate CRC LogEC50 ([3]; with test item 195 nM): −6.8
- L-glutamate CRC HillSlope ([3]; with test item 781 nM): 1.3
- L-glutamate CRC LogEC50 ([3]; with test item 781 nM): −6.6
- L-glutamate CRC HillSlope ([3]; with test item 3.1 μM): 1.2
- L-glutamate CRC LogEC50 ([3]; with test item 3.1 μM): −6.6
- L-glutamate CRC HillSlope ([3]; with test item 12.5 μM): 2.0
- L-glutamate CRC LogEC50 ([3]; with test item 12.5 μM): −6.7
- L-glutamate CRC HillSlope ([3]; with test item 50 μM): 2.5
- L-glutamate CRC LogEC50 ([3]; with test item 50 μM): −6.4
- Kb [4]: 1.4 µM
- % affinity ratio [4, 9]: 33%
- α, estimated cooperativity term [4, 10]: 0.15
- L-glutamate CRC HillSlope ([4]; with test item 49 nM): 1.6
- L-glutamate CRC LogEC50 ([4]; with test item 49 nM): −7.4
- L-glutamate CRC HillSlope ([4]; with test item 195 nM): 1.5
- L-glutamate CRC LogEC50 ([4]; with test item 195 nM): −7.3
- L-glutamate CRC HillSlope ([4]; with test item 781 nM): 1.4
- L-glutamate CRC LogEC50 ([4]; with test item 781 nM): −7.2
- L-glutamate CRC HillSlope ([4]; with test item 3.1 μM): 1.8
- L-glutamate CRC LogEC50 ([4]; with test item 3.1 μM): −7.1
- L-glutamate CRC HillSlope ([4]; with test item 12.5 μM): 1.6
- L-glutamate CRC LogEC50 ([4]; with test item 12.5 μM): −6.9
- L-glutamate CRC HillSlope ([4]; with test item 50 μM): 2.0
- L-glutamate CRC LogEC50 ([4]; with test item 50 μM): −6.7
- profile on L-glutamate CRC [5]: insurmountable profile
- trapping [6]: 86.0%
- Block trapped (BT), trapping [7]: 86.7%
- Block (B) of 10/10 μM L-glutamate/glycine-evoked currents ([7]; listed as (±)-ketamine): 74.0%±1.2% and 74.0%
- Block trapped (BT), trapping ([7]; listed as (±)-ketamine): 86.7%±1.8% and 86.7%
- Residual block (BR) ([7]; listed as (±)-ketamine): 64.1%±1.3% and 64.1%
- % Current (mean ± SEM) ([8]; 0.3 μM test item): 44.2 ± 3.0%
- % Current (mean ± SEM) ([8]; 1 μM test item): 74.6 ± 2.2%
- I1 (% current) ([8]; 1 μM test item, offset fitting): 28.5 % current
- Tau-off ([8]; 1 μM test item, offset fitting): 151.0 s
- I2 (% current) ([8]; 1 μM test item, offset fitting): 95.5 % current
- Tau-on ([8]; 1 μM test item, onset fitting): 47.1 s
- I1 (% current) ([8]; 1 μM test item, onset fitting, current after 30 seconds application of test item): 28.7 % current
- % Current (mean ± SEM) ([8]; 3 μM test item): 89.7 ± 0.6%
- I1 (% current) [8, 11]: 4.9 % current
- Tau-off [8, 11]: 163.2 s
- I2 (% current) [8, 11]: 102.9 % current
- Tau-on ([8]; 10 μM test item, onset fitting): 9.9 s
- I1 (% current) ([8]; 10 μM test item, onset fitting, current after 30 seconds application of test item): 3.6 % current
- % block of 10/10 μM L-glutamate/glycine induced current ([8]; test item 0.3 μM, hydrochloride): 44% and 44.2%±3.0% and 44.2%
- tau-off, mean of single trace fittings ([8]; test item 1 μM): 151.7 ± 6.3 s
- tau-on ([8]; test item 1 μM): 47.1 s
- tau-on, average of single trace fittings ([8]; test item 1 μM): 47.3 ± 1.4 s
- tau-off ([8]; test item 1 μM, hydrochloride): 151 s
- tau-off ([8]; test item 1 μM, listed as (±)-ketamine, hydrochloride): 151.0 s
- % block of 10/10 μM L-glutamate/glycine induced current ([8]; test item 1 μM, hydrochloride): 74.6%±2.2% and 75% and 74.6%
- % block of 10/10 μM L-glutamate/glycine induced current ([8]; test item 3 μM, hydrochloride): 90% and 89.7%±0.6% and 89.7%
- tau-off ([8]; test item 10 μM): 163.2 s
- tau-on ([8]; test item 10 μM): 9.9 s
- % block of 10/10 μM L-glutamate/glycine induced current ([8]; test item 10 μM, hydrochloride): 97.2%±0.3% and 97% and 97.2%
